This is an account of results in ChEMBL document CHEMBL1201862, “PubChem BioAssay data set” (2004).

Among the test systems are NCI-H522; Hs-578T; UACC-257; MOLT-4; SF-539; SK-MEL-2; TK-10; A549; SW-620; UO-31; RXF 393; HT-29; T47D; OVCAR-4; SNB-19; MDA-MB-231; SK-OV-3; OVCAR-5; Malme-3M; HCC 2998.
Common to all, as to test: inhibition of tumour cell growth, NCI panel, 48 h

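The compound was tested at five concentrations on cells cultured in 96-well plates, with a 48-hour exposure period. GI50 is the concentration that inhibits growth by half.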 Calls of active or inactive are those of the source. Cut-off read from the data, not from the text of the source: active = GI50 up to about 1.1 µM and inactive = higher.

On to `Cc1[nH]nc(-c2ccon2)c1N=O`, for which the GI50 with NCI-H522 was 20 µM (inactive); in the assay on Hs-578T it was 26.9 µM (inactive); in the assay with UACC-257, 17.4 µM (inactive); in the assay with MOLT-4, 2 µM (inactive); in the assay on SF-539 it was 17.9 µM (inactive); with SK-MEL-2 it was 34.3 µM (inactive). Also, the GI50 in the assay on TK-10 is 18.7 µM (inactive); with A549 it was 23.7 µM (inactive); with SW-620 it was 21.2 µM (inactive); with UO-31, 19.8 µM (inactive); in the assay with RXF 393, 34.3 µM (inactive); in the assay with HT-29, 18.2 µM (inactive). Besides, the GI50 was 25.1 µM (inactive) in the assay on T47D; 17.5 µM (inactive) in the assay on OVCAR-4; 26.9 µM (inactive) in the assay with SNB-19; 16.8 µM (inactive) in the assay on MDA-MB-231; 26.3 µM (inactive) in the assay on SK-OV-3; 19.3 µM (inactive) in the assay with OVCAR-5. The GI50 in the assay with Malme-3M was 20.7 µM (inactive).

Regarding `CCCCN(CC)c1nc(C)nc2c1c(C)c(C)n2-c1c(C)cc(C)cc1C` [ANTALARMIN], the GI50 in the assay with NCI-H522 is 12.8 µM (inactive); in the assay on Hs-578T, 16.9 µM (inactive); in the assay with UACC-257, 13.3 µM (inactive); in the assay on MOLT-4, 10.9 µM (inactive); in the assay on SF-539, 2.69 µM (inactive); in the assay on SK-MEL-2, 12.9 µM (inactive). The GI50 is 17.4 µM (inactive) in the assay with TK-10; 14.2 µM (inactive) in the assay on A549; 15.7 µM (inactive) in the assay on SW-620; 14.7 µM (inactive) in the assay on UO-31; 6.93 µM (inactive) with RXF 393; 10.5 µM (inactive) with HT-29. In addition, the GI50 in the assay on T47D was 10.7 µM (inactive); with OVCAR-4, 16.3 µM (inactive); in the assay on SNB-19 it was 16.4 µM (inactive); in the assay with MDA-MB-231 it was 14.2 µM (inactive); with SK-OV-3, 17.1 µM (inactive); with OVCAR-5 it was 15.3 µM (inactive). In addition, the GI50 in the assay on Malme-3M was 15.9 µM (inactive).

With `CC(C)OP(=O)(OC(C)C)c1ccc2c(c1)OCCOCCOCCOCCO2`, the GI50 with NCI-H522, in the assay with Hs-578T, in the assay with UACC-257, with MOLT-4, with SF-539 and with TK-10 was > 100 µM (inactive) each time. Moreover, the GI50 in the assay with A549, with HCC 2998, in the assay with SW-620, in the assay with UO-31, in the assay on HT-29 and in the assay with T47D was > 100 µM (inactive) in each case. Further, the GI50 in the assay on SNB-19, with MDA-MB-231, with SK-OV-3 and with Malme-3M was > 100 µM (inactive) throughout.

Regarding `N/C(S)=N/N=C/c1ccc(O)cn1`, the GI50 was 316 µM (inactive) in the assay with Hs-578T; 22.4 µM (inactive) with UACC-257; 2.26 µM (inactive) with SF-539; 105 µM (inactive) with TK-10; 47.6 µM (inactive) in the assay on A549; 13.6 µM (inactive) in the assay on HCC 2998. The GI50 was 15.4 µM (inactive) with SW-620; 10.6 µM (inactive) in the assay on UO-31; 22.3 µM (inactive) in the assay with HT-29; 4.72 µM (inactive) with T47D; 12.9 µM (inactive) in the assay with SNB-19; 18.5 µM (inactive) with MDA-MB-231. Moreover, the GI50 is 45 µM (inactive) in the assay with OVCAR-5 and 7.55 µM (inactive) in the assay on Malme-3M.

On to `CC1=C(C(=O)Nc2cccc(Cl)c2)C(c2ccc([N+](=O)[O-])cc2)C(C(=O)Nc2cccc(Cl)c2)=C(C)N1`, for which the GI50 with NCI-H522 is 26.3 µM (inactive); in the assay with UACC-257 it was 16.7 µM (inactive); in the assay on MOLT-4, 10.3 µM (inactive); in the assay on SF-539 it was 39.8 µM (inactive); in the assay on SK-MEL-2 it was 18.3 µM (inactive); in the assay on TK-10, 67.3 µM (inactive). Further, the GI50 in the assay on A549 was 28.9 µM (inactive); in the assay with HCC 2998 it was 17.9 µM (inactive); in the assay on SW-620 it was > 10 µM (inactive); in the assay on UO-31 it was 17.7 µM (inactive); in the assay on RXF 393, 19.5 µM (inactive); with HT-29, 16.6 µM (inactive). In addition, the GI50 in the assay with OVCAR-4 is 20.7 µM (inactive); with SNB-19 it was 37.2 µM (inactive); in the assay with SK-OV-3, 11.9 µM (inactive); in the assay on OVCAR-5, 48 µM (inactive); with Malme-3M it was 21 µM (inactive).

Consider `CCOC(=O)C(=O)Nc1ccccc1CC`, for which the GI50 in the assay with NCI-H522, in the assay on UACC-257, in the assay on MOLT-4, in the assay with SF-539, in the assay with SK-MEL-2 and with TK-10 was > 100 µM (inactive) each time. Besides, the GI50 in the assay on A549, with HCC 2998, in the assay on SW-620, in the assay on UO-31, with RXF 393 and with HT-29 was > 100 µM (inactive) in each case. Further, the GI50 in the assay on OVCAR-4, in the assay with SNB-19, in the assay on SK-OV-3, with OVCAR-5 and in the assay on Malme-3M was > 100 µM (inactive) in each case.

Regarding `COc1cccc(Nc2nc(-c3cccs3)nc3ccc(Br)cc23)c1`, the GI50 in the assay with NCI-H522 was > 100 µM (inactive); with Hs-578T, > 100 µM (inactive); in the assay on UACC-257, > 100 µM (inactive); in the assay on SF-539, 94.2 µM (inactive); with SK-MEL-2, > 100 µM (inactive); in the assay with TK-10 it was 36.7 µM (inactive). Also, the GI50 in the assay on A549 was 76.4 µM (inactive); with SW-620, > 100 µM (inactive); with UO-31, > 100 µM (inactive); in the assay with HT-29, > 100 µM (inactive); with T47D, > 100 µM (inactive); with SNB-19, 25.5 µM (inactive). For the same compound, the GI50 was 37.8 µM (inactive) with MDA-MB-231, 70 µM (inactive) in the assay with SK-OV-3, 95.3 µM (inactive) in the assay on OVCAR-5 and 72.9 µM (inactive) in the assay on Malme-3M.

Take `COCCOc1nc(-c2ccccc2)nc2ccccc12`: the GI50 in the assay with NCI-H522 is 35.3 µM (inactive); in the assay on Hs-578T, 28.8 µM (inactive); in the assay on UACC-257 it was > 100 µM (inactive); with MOLT-4, 20.6 µM (inactive); with SF-539 it was 48.8 µM (inactive); with SK-MEL-2 it was 51.8 µM (inactive). For the same compound, the GI50 is 36 µM (inactive) in the assay with TK-10; 37.3 µM (inactive) in the assay on A549; 34 µM (inactive) in the assay with SW-620; 38.6 µM (inactive) with UO-31; 11.7 µM (inactive) with RXF 393; 29.6 µM (inactive) with HT-29. The GI50 with T47D is 27.7 µM (inactive); with OVCAR-4, 37.3 µM (inactive); with SNB-19, 69.2 µM (inactive); in the assay with MDA-MB-231, 31 µM (inactive); in the assay on SK-OV-3 it was 46.7 µM (inactive); in the assay with OVCAR-5, > 100 µM (inactive). For the same compound, the GI50 with Malme-3M was 51.1 µM (inactive).

Take `COc1ccc2cc(/C=N\NC(=O)Nc3cccc4ccccc34)ccc2c1`: the GI50 in the assay with NCI-H522 was 80 µM (inactive); with Hs-578T, 30.5 µM (inactive); with UACC-257, 32.4 µM (inactive); with MOLT-4, 34.1 µM (inactive); in the assay with SF-539, 30.5 µM (inactive); with SK-MEL-2 it was 25.7 µM (inactive). The GI50 in the assay on TK-10 was 22 µM (inactive); in the assay on A549, > 100 µM (inactive); in the assay with HCC 2998 it was > 100 µM (inactive); with SW-620 it was 74 µM (inactive); in the assay with UO-31, 87.3 µM (inactive); in the assay with RXF 393 it was 38.5 µM (inactive). The GI50 with HT-29 is 39.2 µM (inactive); in the assay on OVCAR-4, 14.5 µM (inactive); in the assay with SNB-19, 22 µM (inactive); with MDA-MB-231 it was 27 µM (inactive); with OVCAR-5, 69.5 µM (inactive); in the assay with Malme-3M, 97.7 µM (inactive).

Regarding `C=CCOCC1C2CCC3(OCCO3)C21` (configuration not stated), the GI50 in the assay on NCI-H522, with UACC-257, in the assay on MOLT-4, in the assay with SF-539, in the assay on SK-MEL-2 and in the assay on TK-10 was > 100 µM (inactive) throughout. Also, the GI50 in the assay with A549 is > 100 µM (inactive); in the assay on HCC 2998, > 100 µM (inactive); in the assay with SW-620, > 100 µM (inactive); in the assay with UO-31, 19.1 µM (inactive); in the assay on RXF 393 it was > 100 µM (inactive); in the assay on HT-29 it was > 100 µM (inactive). The GI50 with OVCAR-4, in the assay with SNB-19, in the assay with MDA-MB-231, in the assay on SK-OV-3, in the assay on OVCAR-5 and in the assay with Malme-3M was > 100 µM (inactive) each time.

As for `CC(=O)N1OC(C)CC1Nc1ccc(Br)cc1` (configuration not stated), the GI50 in the assay on Hs-578T is > 100 µM (inactive); in the assay with MOLT-4 it was 0.971 µM (active); in the assay with SF-539 it was 5.77 µM (inactive); with SK-MEL-2, 2.62 µM (inactive); in the assay on TK-10, 14.7 µM (inactive); in the assay on A549, 9.12 µM (inactive). Moreover, the GI50 with HCC 2998 was 3.05 µM (inactive); in the assay on SW-620 it was 0.76 µM (active); in the assay with UO-31 it was 0.0955 µM (active); in the assay on RXF 393 it was > 100 µM (inactive); in the assay with HT-29 it was 75.9 µM (inactive); with T47D, 1.34 µM (inactive). Moreover, the GI50 was > 100 µM (inactive) in the assay with SNB-19, > 100 µM (inactive) with SK-OV-3, 96.2 µM (inactive) in the assay on OVCAR-5 and > 100 µM (inactive) in the assay on Malme-3M.

For `CN1CCc2c(sc3nc(S)nc(S)c23)C1`, the GI50 in the assay with NCI-H522, in the assay with Hs-578T, with UACC-257, in the assay with MOLT-4, in the assay with SF-539 and in the assay with SK-MEL-2 was > 100 µM (inactive) throughout. Moreover, the GI50 in the assay on TK-10, with A549, with SW-620, in the assay on RXF 393, in the assay on HT-29 and in the assay with T47D was > 100 µM (inactive) in each case. Also, the GI50 was > 100 µM (inactive) with OVCAR-4; > 100 µM (inactive) with SNB-19; 39.5 µM (inactive) in the assay with MDA-MB-231; > 100 µM (inactive) in the assay with SK-OV-3; > 100 µM (inactive) in the assay with OVCAR-5; > 100 µM (inactive) in the assay on Malme-3M.
